Results reported in patent US20260365641A1, “Aromatic Acetylene Derivative, Preparation Method Therefor, And Use Thereof” (Zhejiang Hisun Pharmaceutical Co., Ltd., priority 2022, published 2026).
Converted amounts (≈) assume the structure as drawn.

Key:
[1] = molecular target: T1, recombinant Pseudomonas aeruginosa LpxC (Pseudomonas aeruginosa, UniProt P47205); assay: Inhibition of enzymatic activity of recombinant Pseudomonas aeruginosa LpxC in vitro; assay type: biochemical; conditions: 5 nM LpxC; substrate UDP-3-O—(R-3-hydroxydecanoyl)-GlcNAc; 25 °C, 120 minutes; fluorescamine readout
T1 construct: purchased Signalway Antibody AP74647-2
T1 sequence (P47205 1-303): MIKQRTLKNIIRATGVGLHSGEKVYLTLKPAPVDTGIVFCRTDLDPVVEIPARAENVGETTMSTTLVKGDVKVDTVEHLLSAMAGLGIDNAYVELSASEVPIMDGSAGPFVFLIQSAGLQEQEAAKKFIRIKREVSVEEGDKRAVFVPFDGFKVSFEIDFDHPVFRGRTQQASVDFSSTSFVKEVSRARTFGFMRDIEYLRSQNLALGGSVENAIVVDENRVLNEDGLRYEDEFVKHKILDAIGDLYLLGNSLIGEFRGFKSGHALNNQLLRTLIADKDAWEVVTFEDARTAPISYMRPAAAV
Protocol: The following method was used to determine degrees of inhibition of the compounds of the present invention on the enzymatic activity of recombinant Pseudomonas aeruginosa LpxC in vitro.
The test process was briefly described as follows: the tested compound was first dissolved in DMSO to prepare a 10 mM storage solution. The reaction was carried out in a 96-well microplate. Firstly, 20 μL of recombinant Pseudomonas aeruginosa LpxC (purchased from Signalway Antibody, article number AP74647-2) was added into the wells, and the final concentrations were 5 nM respectively. 5 μL of the compound to be tested was added, diluted in 4-fold, with 8 concentration points, and the concentration range was 0.61-10000 nM. 5 μL of LpxC substrate UDP-3-O—(R-3-hydroxydecanoyl)-GlcNAc (purchased from Biosynth Carbosynth, article number mu75071) was added, wherein a final concentration of the substrate was […], and the substrate was incubated at 25 °C for 120 minutes. Subsequently, 20 μL of 2.0 mg/mL fluorescamine (purchased from sigma aldrich, article number F9015, wherein a solvent was dimethylformamide/acetonitrile (1:1)) was added to the reaction system, mixed evenly and reacted for 10 minutes. Finally, 50 μL of 200 mM sodium phosphate buffer solution (pH 8.0) was added to stop the reaction, and a microplate reader (BMG) was used for reading. An excitation wavelength and an emission wavelength were 390 nm and 495 nm respectively. Compared with the fluorescence intensity ratio of a control group (0.1% DMSO), the percentage inhibition rates of the compounds at each concentration were calculated, and the IC50 values of the compounds were obtained by performing nonlinear regression analysis with logarithmic value of the compound concentration-inhibition rate by GraphPad Prism 5 software, which can be seen in Table 1.

E. coli ATCC 25922 = assay: Antibacterial activity, minimum inhibitory concentration (MIC) in vitro, broth dilution; assay type: cell-based; conditions: Escherichia coli, ATCC25922, 5×10^5 cfu/mL, 35 °C, 18-24 hours
Protocol: (§1) The minimum inhibitory concentration (MIC) in vitro was determined according to CLSI's guidelines, and a minimal broth dilution method was used.
(§2) The test process was briefly described as follows: the tested compound was dissolved in DMSO to prepare a storage solution of […], and then prepared into 11 two-fold-diluted 100× high-concentration working liquids (a final concentration of the system was 64 μg/mL to 0.06 μg/mL) by DMSO. Stains (K. pneumoniae ATCC13883, K. pneumoniae ATCC51504 and E. coli ATCC 25922) frozen at −80 °C with glycerin were inoculated to a solid agar culture medium, placed into an incubator for culturing for 18-24 hours at 35 °C to finish the preparation work of the strains. A proper amount of solid plate culture was collected, re-suspended in normal saline, and uniformly mixed. The turbidity of the bacterial suspension was adjusted to a proper turbidity by a turbidity meter, containing about 1×10^8 cfu/mL of bacteria. Then, the turbidity-regulated bacterial suspension was diluted with a test culture medium (type: CAMHIIB, purchased from BD company) to a bacterial concentration of 5×10^5 cfu/mL, thus finishing the preparation of an inoculation solution. 198 μL of the inoculation solution was inoculated into a 96-well plate, and added with 2 μL 100× high concentration working liquid of the compound, then the 96-well plate was placed at 35 °C for culturing for 18-24 hours.

K. pneumoniae ATCC13883 = assay: as above; assay type: cell-based; conditions: Klebsiella pneumoniae, 5×10^5 cfu/mL, 35 °C, 18-24 hours
Protocol: as §1, §2

K. pneumoniae ATCC51504 = assay: as above; assay type: cell-based; conditions: Klebsiella pneumoniae, 5×10^5 cfu/mL, 35 °C, 18-24 hours
Protocol: as §1, §2

| SMILES | IC50 [1] | MIC (E. coli ATCC 25922) | MIC (K. pneumoniae ATCC13883) | MIC (K. pneumoniae ATCC51504) |
| --- | --- | --- | --- | --- |
| C[C@H](O)c1nccn1Cc1cc(-c2ccc(C#CC3CC4(CCN(C(=O)CO)CC4)C3)cc2)on1 [Example 12, (S)-2-hydroxy-1-(2-((4-(3-((2-(1-hydroxyethyl)-1H-imidazol-1-yl)methyl)isoxazol-5-yl)phenyl)ethynyl)-7-azaspiro[3.5]nonan-7-yl)ethan-1-one] | 4.06 nM | 2 µg/mL (≈ 4.21 µM) | 4 µg/mL (≈ 8.43 µM) |  |
| C[C@H](O)c1nccn1Cc1cc(-c2ccc(C#CC3CC4(CCN(CC(N)=O)CC4)C3)cc2)on1 [Example 13, (S)-2-(2-((4-(3-((2-(1-hydroxyethyl)-1H-imidazol-1-yl)methyl)isoxazol-5-yl)phenyl)ethynyl)-7-azaspiro[3.5]nonan-7-yl)acetamide] | 5 nM | 1 µg/mL (≈ 2.11 µM) | 1 µg/mL (≈ 2.11 µM) |  |
| C[C@H](O)c1nccn1Cc1cc(-c2ccc(C#CC3CC4(CCN(C=O)CC4)C3)cc2)on1 [Example 17, (S)-2-((4-(3-((2-(1-hydroxyethyl)-1H-imidazol-1-yl)methyl)isoxazol-5-yl)phenyl)ethynyl)-7-azaspiro[3.5]nonane-7-carbaldehyde] | 8.32 nM | 1 µg/mL (≈ 2.25 µM) | 2 µg/mL (≈ 4.5 µM) |  |
| C[C@H](O)c1nccn1Cc1cc(-c2ccc(C#CC3CC4(CCN(C(N)=O)CC4)C3)cc2)on1 [Example 19, (S)-2-((4-(3-((2-(1-hydroxyethyl)-1H-imidazol-1-yl)methyl)isoxazol-5-yl)phenyl)ethynyl)-7-azaspiro[3.5]nonane-7-carboxamide] | 6.05 nM | 2 µg/mL (≈ 4.35 µM) | 4 µg/mL (≈ 8.7 µM) |  |
| C[C@H](O)c1nccn1Cc1cc(-c2ccc(C#CC3CC4(C3)CN(CC(N)=O)C4)cc2)on1 [Example 20, (S)-2-(6-((4-(3-((2-(1-hydroxyethyl)-1H-imidazol-1-yl)methyl)isoxazol-5-yl)phenyl)ethynyl)-2-azaspiro[3.3]heptan-2-yl)acetamide] | 6.77 nM | 2 µg/mL (≈ 4.49 µM) | 4 µg/mL (≈ 8.98 µM) |  |
| C[C@H](O)c1nccn1Cc1cc(-c2ccc(C#CC3=CCN(C(=O)C4CCCCO4)CC3)cc2)on1 (stereo partly drawn) [Example 65, (4-((4-(3-((2-((S)-1-hydroxyethyl)-1H-imidazol-1-yl)methyl)isoxazol-5-yl)phenyl)ethynyl)-3,6-dihydropyridin-1(2H)-yl)(tetrahydro-2H-pyran-2-yl)methanone] | 15.1 nM | 2 µg/mL (≈ 4.11 µM) |  | 0.5 µg/mL (≈ 1.03 µM) |
| C[C@H](O)c1nccn1Cc1cc(-c2ccc(C#CC3=CCN(C(=O)C4CCOCC4)CC3)cc2)on1 [Example 66, (S)-(4-((4-(3-((2-(1-hydroxyethyl)-1H-imidazol-1-yl)methyl)isoxazol-5-yl)phenyl)ethynyl)-3,6-dihydropyridin-1(2H)-yl)(tetrahydro-2H-pyran-4-yl)methanone] | 18.5 nM | 2 µg/mL (≈ 4.11 µM) |  | 1 µg/mL (≈ 2.06 µM) |
| COCCC(=O)N1CC=C(C#Cc2ccc(-c3cc(Cn4ccnc4[C@H](C)O)no3)cc2)CC1 [Example 67, (S)-1-(4-((4-(3-((2-(1-hydroxyethyl)-1H-imidazol-1-yl)methyl)isoxazol-5-yl)phenyl)ethynyl)-3,6-dihydropyridin-1(2H)-yl)-3-methoxypropan-1-one] | 22.9 nM | 1 µg/mL (≈ 2.17 µM) |  | 0.5 µg/mL (≈ 1.09 µM) |
| COCC(=O)N1CC=C(C#Cc2ccc(-c3cc(Cn4ccnc4[C@H](C)O)no3)cc2)CC1 [Example 68, (S)-1-(4-((4-(3-((2-(1-hydroxyethyl)-1H-imidazol-1-yl)methyl)isoxazol-5-yl)phenyl)ethynyl)-3,6-dihydropyridin-1(2H)-yl)-2-methoxyethan-1-one] | 21.2 nM | 1 µg/mL (≈ 2.24 µM) |  | 1 µg/mL (≈ 2.24 µM) |
| C[C@H](O)c1nccn1Cc1cc(-c2ccc(C#CC3=CCN(C(=O)C4(O)CC4)CC3)cc2)on1 [Example 69, (S)-(1-hydroxycyclopropyl)(4-((4-(3-((2-(1-hydroxyethyl)-1H-imidazol-1-yl)methyl)isoxazol-5-yl)phenyl)ethynyl)-3,6-dihydropyridin-1(2H)-yl)methanone] | 20.8 nM | 2 µg/mL (≈ 4.36 µM) |  | 2 µg/mL (≈ 4.36 µM) |
